{"source": "patent US20260042762A1", "about": "(Kymera Therapeutics, Inc., priority 2018, published 2026)", "data": [{"target": "T1, MerTK (Homo sapiens, UniProt Q12866)", "T1 construct": "endogenous in cells; host or cells: Jurkat cells", "T1 sequence (Q12866 21-999)": "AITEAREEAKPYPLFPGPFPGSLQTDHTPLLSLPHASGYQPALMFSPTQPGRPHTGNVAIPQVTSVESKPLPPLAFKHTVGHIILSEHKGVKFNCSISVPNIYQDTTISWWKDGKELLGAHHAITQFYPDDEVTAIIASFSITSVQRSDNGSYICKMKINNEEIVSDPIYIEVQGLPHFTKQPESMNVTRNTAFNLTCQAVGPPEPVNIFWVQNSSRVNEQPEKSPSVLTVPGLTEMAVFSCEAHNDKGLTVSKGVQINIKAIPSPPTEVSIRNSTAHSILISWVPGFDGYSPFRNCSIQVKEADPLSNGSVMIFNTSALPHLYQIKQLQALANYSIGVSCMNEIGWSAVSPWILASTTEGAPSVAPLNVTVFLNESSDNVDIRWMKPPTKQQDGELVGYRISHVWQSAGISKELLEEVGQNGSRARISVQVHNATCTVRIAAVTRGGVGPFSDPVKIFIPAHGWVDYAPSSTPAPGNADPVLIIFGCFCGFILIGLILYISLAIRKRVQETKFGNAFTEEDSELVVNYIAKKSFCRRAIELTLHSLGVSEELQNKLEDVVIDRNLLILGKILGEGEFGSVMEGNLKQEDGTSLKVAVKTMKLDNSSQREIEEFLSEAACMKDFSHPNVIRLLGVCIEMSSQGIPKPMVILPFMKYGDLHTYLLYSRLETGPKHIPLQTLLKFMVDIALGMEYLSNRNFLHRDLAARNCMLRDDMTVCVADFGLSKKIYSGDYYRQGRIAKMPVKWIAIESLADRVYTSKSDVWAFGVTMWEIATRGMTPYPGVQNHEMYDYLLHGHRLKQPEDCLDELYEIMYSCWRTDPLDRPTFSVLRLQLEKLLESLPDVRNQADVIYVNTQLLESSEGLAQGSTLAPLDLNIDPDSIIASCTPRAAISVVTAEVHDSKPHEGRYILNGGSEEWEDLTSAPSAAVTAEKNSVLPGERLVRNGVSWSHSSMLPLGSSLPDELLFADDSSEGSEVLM", "experiment": "MerTk degradation in Jurkat cells (Western blot)", "type": "cell-based", "conditions": "Jurkat, 4 h, 0.001-1 μM, 4 hour-incubation at 37° C., read-out: Jurkat Max % MerTK Degradation", "method": "Compounds were reconstituted in DMSO to make 10 mM stock solutions. […] Cells were seeded into 6-well plates with about 5×10^6 cells per well. 2 μL of diluted compounds were added to cells to the final concentration of 0.001-1 μM. After a 4 hour-incubation at 37° C., cells were collected into 2 mL Eppendorf tubes and centrifuged at 1,000 rpm for 5 min. The cell pellets were washed with DPBS (1×) once and resuspended in 60 μL RIPA lysis buffer with Halt Protease and Phophatase Inhibitor Cocktail. The cells were lysed on ice for 10 min, then centrifuged at 14,000 rpm for 10 min at 4° C. and the supernatants were collected for western blots.\nThe protein concentration of cell lysates was quantified with Pierce™ BCA Protein Assay Kit. […] BCA working reagents were prepared by mixing BCA reagent A with reagent B in 50: 1 ratio. 200 μL of the BCA working reagents were added to 25 μL of BCA standard or cell lysates in microplate, and mixed thoroughly on a plate shaker for 30 seconds. After incubation at 37° C. for 30 min, the absorbance of samples at 562 nm were measured with EnVision Plate Reader.\nProtein lysates were prepared in NuPAGE™ LDS sample buffer and NuPAGE™ sample reducing agent, and incubated at 95° C. for 5 min. […] The proteins were transferred to low fluorescence PVDF membranes using the Trans-Blot Turbo Transfer System. Membranes were then blocked in Odyssey blocking buffer at RT for 1 h followed by primary incubation at 4° C. overnight. The primary antibodies were MerTK rabbit monoclonal antibody and actin mouse monoclonal antibody. Membranes were washed three times with TBST (1×), and then incubated with IR Dye 800 CW Goat anti-rabbit and IR Dye 700 CW Goat anti-mouse secondary antibodies in 1:10,000 dilution at RT for 1 h. The Western blot images were obtained using Odyssey Imaging System.", "units": {"Dmax": "%"}, "values": [{"smiles": "Cn1c(=O)n([C@H]2CCC(=O)NC2=O)c2ccc(CCCOCCCN3CCN(Cc4ccc(-c5cn([C@H]6CC[C@@](C)(O)CC6)c6nc(NCCC(F)(F)F)ncc56)cc4)CC3)cc21", "note": "[I-141, 3-[3-methyl-2-oxo-5-[3-(3-[4-[(4-[7-[cis-4-hydroxy-4-methylcyclohexyl]-2-[(3,3,3-trifluoropropyl)amino]pyrrolo[2,3-d]pyrimidin-5-y1]phenyl)methyl]piperazin-1-yl]propoxy)propyl]-1,3-benzodiazol-1-yl]piperidine-2,6-dione]", "Dmax": "> 50"}, {"smiles": "CCC[C@H](C)Nc1ncc2c(n1)n([C@H]1CC[C@H](O)CC1)cc2[C@H]1CC[C@@H](CN2CCN(C3CC(OCCc4ccc5c(c4)n(C)c(=O)n5C4CCC(=O)NC4=O)C3)CC2)CC1", "note": "(stereo partly drawn) [I-206, 3-(3-methyl-2-oxo-5-[2-[3-(4-[cis-4-[2-[(2S)-pentan-2-ylamino]-7-[trans-4-hydroxycyclohexyl]pyrrolo[2,3-d]pyrimidin-5-yl]cyclohexyl]methyl]piperazin-1-yl)cyclobutoxylethyl]-1,3-benzodiazol-1-y1)piperidine-2,6-dione]", "Dmax": "> 50"}, {"smiles": "Cn1c(=O)n([C@H]2CCC(=O)NC2=O)c2ccc(CCCN3CC(N4CCN(Cc5ccc(-c6cn([C@H]7CC[C@H](O)CC7)c7nc(NCCC(F)(F)F)ncc67)cc5)CC4)C3)cc21", "note": "[I-116, 3-[3-methyl-2-oxo-5-[3-(3-[4-[(4-[7-[trans-4-hydroxycyclohexyl]-2-[(3,3,3-trifluoropropyl)amino]-7H-pyrrolo[2,3-d]pyrimidin-5-yl]phenyl)methyl]piperazin-1-yl]azetidin-1-y1)propyl]-2,3-dihydro-1H-1,3-benzodiazol-1-yl]piperidine-2,6-dione]", "Dmax": "> 50"}, {"smiles": "Cn1c(=O)n([C@H]2CCC(=O)NC2=O)c2ccc(CCCOCCCOCCN3CCN(Cc4ccc(-c5cn([C@H]6CC[C@H](O)CC6)c6nc(NCCC(F)(F)F)ncc56)cc4)CC3)cc21", "note": "[I-78, 3-(3-methyl-2-oxo-5-[3-[3-(2-[4-[(4-[7-[trans-4-hydroxycyclohexyl]-2-[(3,3,3-trifluoropropyl)amino]-7H-pyrrolo[2,3-d]pyrimidin-5-yl]phenyl)methyl]piperazin-1-yl]ethoxy)propoxy]propy1]-2,3-dihydro-1H-1,3-benzodiazol-1-yl)piperidine-2,6-dione; formic acid]", "Dmax": "> 50"}, {"smiles": "Cn1c(=O)n([C@H]2CCC(=O)NC2=O)c2ccc(CCCOCCCN3CCN(Cc4ccc(-c5cn([C@H]6CC[C@H](O)CC6)c6nc(NC7CC7)ncc56)cc4)CC3)cc21", "note": "[I-108, 3-[5-(3-[3-[4-([4-[2-(cyclopropylamino)-7-[trans-4-hydroxycyclohexyl]-7H-pyrrolo[2,3-d]pyrimidin-5-yl]phenyl]methyl)piperazin-1-yl]propoxy]propyl)-3-methyl-2-oxo-2,3-dihydro-1H-1,3-benzodiazol-1-yl]piperidine-2,6-dione; bis(formic acid)]", "Dmax": "> 50"}, {"smiles": "Cn1c(=O)n([C@H]2CCC(=O)NC2=O)c2ccc(CCCOCCOCCNCc3ccc(-c4cn([C@H]5CC[C@H](O)CC5)c5nc(NCCC(F)(F)F)ncc45)cc3)cc21", "note": "[I-48, 3-(3-methyl-2-oxo-5-[3-[2-(2-[[(4-[7-[trans-4-hydroxycyclohexyl]-2-[(3,3,3-trifluoropropyl)amino]-7H-pyrrolo[2,3-d]pyrimidin-5-y1]phenyl)methyl]amino]ethoxy)ethoxy]propyl]-2,3-dihydro-1H-1,3-benzodiazol-1-y1)piperidine-2,6-dione]", "Dmax": "> 50"}, {"smiles": "Cn1c(=O)n([C@H]2CCC(=O)NC2=O)c2ccc(CCCOCCCN3CCN(Cc4ccc(-c5cn([C@H]6CC[C@](C)(O)CC6)c6nc(NCCC(F)(F)F)ncc56)cc4)CC3)cc21", "note": "[I-142, 3-[3-methyl-2-oxo-5-[3-(3-[4-[(4-[7-[trans-4-hydroxy-4-methylcyclohexyl]-2-[(3,3,3-trifluoropropyl)amino]pyrrolo[2,3-d]pyrimidin-5-yl]phenyl)methyl]piperazin-1-yl]propoxy)propyl]-1,3-benzodiazol-1-yl]piperidine-2,6-dione]", "Dmax": "> 50"}, {"smiles": "CCC[C@H](C)Nc1ncc2c(n1)n([C@H]1CC[C@H](O)CC1)cc2[C@H]1CC[C@@H](CN2CCN(CCCOC3CCN(Cc4ccc5c(c4)n(C)c(=O)n5C4CCC(=O)NC4=O)CC3)CC2)CC1", "note": "(stereo partly drawn) [I-207]", "Dmax": "> 50"}, {"smiles": "Cn1c(=O)n([C@H]2CCC(=O)NC2=O)c2ccc(CCCOCCOC3CCN(C[C@H]4CC[C@H](c5cn([C@H]6CC[C@H](O)CC6)c6nc(NCCC(F)(F)F)ncc65)CC4)CC3)cc21", "note": "[I-163]", "Dmax": "> 50"}, {"smiles": "C[C@@H](CC(F)(F)F)Nc1ncc2c(-c3ccc(CN4CCN(CCCO[C@H]5CCN(Cc6ccc7c(c6)n(C)c(=O)n7C6CCC(=O)NC6=O)C5)CC4)cc3)cn([C@H]3CC[C@H](O)CC3)c2n1", "note": "(stereo partly drawn) [I-199, 3-(3-methyl-2-oxo-5-[[(3S)-3-(3-[4-[(4-[7-[trans-4-hydroxycyclohexy1]-2-[[(2S)-4,4,4-trifluorobutan-2-yl]amino]pyrrolo[2,3-d]pyrimidin-5-yl]phenyl)methyl]piperazin-1-yl]propoxy)pyrrolidin-1-yl]methyl]-1,3-benzodiazol-1-yl)piperidine-2,6-dione]", "Dmax": "20 to 50"}, {"smiles": "Cn1c(=O)n([C@H]2CCC(=O)NC2=O)c2ccc(CCCOCCOCCN3CCN(Cc4ccc(-c5cn([C@H]6CC[C@H](O)CC6)c6nc(NCCC(F)(F)F)ncc56)cc4)CC3)cc21", "note": "[I-56, 3-(3-methyl-2-oxo-5-[3-[2-(2-[4-[(4-[7-[trans-4-hydroxycyclohexy1]-2-[(3,3,3-trifluoropropyl)amino]-7H-pyrrolo[2,3-d]pyrimidin-5-yl]phenyl)methyl]piperazin-1-yl]ethoxy)ethoxy]propyl]-2,3-dihydro-1H-1,3-benzodiazol-1-yl)piperidine-2,6-dione]", "Dmax": "> 50"}, {"smiles": "CCCCNc1ncc2c(-c3ccc(CN4CCN(CCOCCOCCOCCOCCNc5cccc6c5n(C)c(=O)n6C5CCC(=O)NC5=O)CC4)cc3)cn([C@H]3CC[C@H](O)CC3)c2n1", "note": "(stereo partly drawn) [I-36, trans-3-(4-[15-[4-([4-[2-(butylamino)-7-[4-hydroxycyclohexyl]-7H-pyrrolo[2,3-d]pyrimidin-5-yl]phenyl]methyl)piperazin-1-yl]-4,7,10,13-tetraoxa-1-azapentadecan-1-yl]-3-methyl-2-oxo-2,3-dihydro-1H-1,3-benzodiazol-1-yl)piperidine-2,6-dione]", "Dmax": "> 50"}, {"smiles": "CCCCNc1ncc2c(-c3ccc(C(C)N4CCN(CCOCCOCCOCCOCCCc5ccc6c(c5)n(C)c(=O)n6C5CCC(=O)NC5=O)CC4)cc3)cn([C@H]3CC[C@H](O)CC3)c2n1", "note": "(stereo partly drawn) [I-59, 3-(5-[1-[4-(1-[4-[2-(butylamino)-7-[trans-4-hydroxycyclohexy1]-7H-pyrrolo[2,3-d]pyrimidin-5-yl]phenyl]ethyl)piperazin-1-yl]-3,6,9,12-tetraoxapentadecan-15-y1]-3-methyl-2-oxo-2,3-dihydro-1H-1,3-benzodiazol-1-yl)piperidine-2,6-dione]", "Dmax": "> 50"}, {"smiles": "Cn1c(=O)n([C@H]2CCC(=O)NC2=O)c2ccc(CCCOCCN3CCC(N4CCN(Cc5ccc(-c6cn([C@H]7CC[C@H](O)CC7)c7nc(NCCC(F)(F)F)ncc67)cc5)CC4)CC3)cc21", "note": "[I-94, 3-(3-methyl-2-oxo-5-[3-[2-(4-[4-[(4-[7-[trans-4-hydroxycyclohexyl]-2-[(3,3,3-trifluoropropyl)amino]-7H-pyrrolo[2,3-d]pyrimidin-5-yl]phenyl)methyl]piperazin-1-yl]piperidin-1-yl)ethoxy]propyl]-2,3-dihydro-1H-1,3-benzodiazol-1-y1)piperidine-2,6-dione; formic acid]", "Dmax": "> 50"}, {"smiles": "CC(O)c1ccc2c(c1)n(C)c(=O)n2C1CCC(=O)NC1=O", "note": "(stereo not drawn) [I-236]", "Dmax": "> 50"}]}]}
